Measurements from patent US20240287046A1, “COMPOUNDS AND RADIOLIGANDS FOR TARGETING NEUROTENSIN RECEPTOR AND USES THEREOF” (Full-Life Technologies HK Limited, priority 2022, published 2024).

Experiments:
[1] = test system: HT-29 tumor-bearing mice; assay: Biodistribution of radionuclide labeled complexes in HT-29 tumor-bearing mice; format: in vivo, BALB/c nude mice
Protocol: (§1) The BALB/c nude mice (Charles River, Beijing) were utilized to establish the xenografted model for biodistribution study. All animal care and experimental procedure were performed by following the animal protocols approved by the ethics committee of China Institute of Radiation Protection.
(§2) Briefly, each mouse was inoculated with approximately 4×10^6 ASPC-1 cells (human pancreatic cancer cell line) or HT-29 cells (human colorectal adenocarcinoma cell line) expressing human NTSR-1 by subcutaneous injection at rear flank. After inoculation, the xenografted tumors were allowed to grow for ˜2-4 weeks till the tumor weight reached to about 0.05 to 0.50 g (0.20 g in average).
(§3) Biodistribution studies were performed by administrating the radionuclide labeled test compound at a dose of ˜30-50 μCi (100 μL in 0.9% NaCl, ˜1.11-1.85 MBq, with specific activity 30-250 μCi/nmol) to each animal through tail vein injection.
(§4) At different time points after the administration, the mice treated with each compound were euthanized. The tissues and organs of the animals in each group were collected, excised, weighed, and analyzed in a PerkinElmer 2480 WIZARD2γ counter, and the percent injected dose (% ID) and % ID/g of each organ or tissue were calculated.

[2] = test system: ASPC-1 tumor-bearing mice; assay: Biodistribution of radionuclide labeled complexes in ASPC-1 tumor-bearing mice; format: in vivo, BALB/c nude mice
Protocol: as §1, §2, §3, §4

COc1cccc(OC)c1-c1cc(C(=O)NC2(C(=O)O)C3CC4CC(C3)CC2C4)nn1-c1ccc(N(CCCN(C)C)C(=O)COCCOCCNC(=O)CN2CCN(CC(=O)[O-])CCN(CC(=O)[O-])CCN(CC(=O)[O-])CC2)cc1C(C)C.[177Lu+3] (stereo not drawn) [^177Lu-I-6]
% ID/g (1 h) Blood ([1]; Blood, 1 h): 3.2 ± 1.07 % ID/g | % ID/g (4 h) Blood ([1]; Blood, 4 h): 0.08 ± 0.03 % ID/g | % ID/g (1 h) Femur ([1]; Femur, 1 h): 0.68 ± 0.18 % ID/g | % ID/g (4 h) Femur ([1]; Femur, 4 h): 0.2 ± 0.03 % ID/g | % ID/g (1 h) Heart ([1]; Heart, 1 h): 1.17 ± 0.24 % ID/g | % ID/g (4 h) Heart ([1]; Heart, 4 h): 0.12 ± 0.03 % ID/g | % ID/g (1 h) Intestine ([1]; Intestine, 1 h): 1.21 ± 0.06 % ID/g | % ID/g (4 h) Intestine ([1]; Intestine, 4 h): 0.27 ± 0.07 % ID/g | % ID/g (1 h) Kidney ([1]; Kidney, 1 h): 5.9 ± 4.85 % ID/g | % ID/g (4 h) Kidney ([1]; Kidney, 4 h): 5.14 ± 2.21 % ID/g | % ID/g (1 h) Liver ([1]; Liver, 1 h): 1.28 ± 0.47 % ID/g | % ID/g (4 h) Liver ([1]; Liver, 4 h): 0.83 ± 0.27 % ID/g | % ID/g (1 h) Lung ([1]; Lung, 1 h): 1.66 ± 1.17 % ID/g | % ID/g (4 h) Lung ([1]; Lung, 4 h): 0.27 ± 0.04 % ID/g | % ID/g (1 h) Muscle ([1]; Muscle, 1 h): 0.57 ± 0.15 % ID/g | % ID/g (4 h) Muscle ([1]; Muscle, 4 h): 0.09 ± 0.04 % ID/g | % ID/g (1 h) Pancreas ([1]; Pancreas, 1 h): 0.62 ± 0.25 % ID/g | % ID/g (4 h) Pancreas ([1]; Pancreas, 4 h): 0.14 ± 0.02 % ID/g | % ID/g (1 h) Spleen ([1]; Spleen, 1 h): 0.45 ± 0.19 % ID/g | % ID/g (4 h) Spleen ([1]; Spleen, 4 h): 0.26 ± 0.1 % ID/g | % ID/g (1 h) Stomach ([1]; Stomach, 1 h): 0.69 ± 0.23 % ID/g | % ID/g (4 h) Stomach ([1]; Stomach, 4 h): 0.32 ± 0.2 % ID/g | % ID/g (1 h) Tumor ([1]; Tumor, 1 h): 10.31 ± 4.72 % ID/g | % ID/g (4 h) Tumor ([1]; Tumor, 4 h): 7.53 ± 3.52 % ID/g | tumor uptake relative to blood, liver and lung compared to ^177Lu—C5 ([2]; 1 or 4 hours): significantly higher tumor uptake | uptake ratio Tumor/Blood ([2]; 1 h): 33.3 | uptake ratio Tumor/Kidney ([2]; 1 h): 3.42 | uptake ratio Tumor/Liver ([2]; 1 h): 25.0 | uptake ratio Tumor/Lung ([2]; 1 h): 23.7 | uptake ratio Tumor/Blood ([2]; 4 h): 364 | uptake ratio Tumor/Kidney ([2]; 4 h): 5.70 | uptake ratio Tumor/Liver ([2]; 4 h): 25.9 | uptake ratio Tumor/Lung ([2]; 4 h): 79.3 | % ID/g (1 h) Blood ([2]; Blood, 1 h): 0.38 ± 0.06 % ID/g | % ID/g (4 h) Blood ([2]; Blood, 4 h): 0.04 ± 0.01 % ID/g | % ID/g (1 h) Femur ([2]; Femur, 1 h): 0.12 ± 0.01 % ID/g | % ID/g (4 h) Femur ([2]; Femur, 4 h): 0.12 ± 0.09 % ID/g | % ID/g (1 h) Heart ([2]; Heart, 1 h): 0.22 ± 0.12 % ID/g | % ID/g (4 h) Heart ([2]; Heart, 4 h): 0.12 ± 0.03 % ID/g | % ID/g (1 h) Intestine ([2]; Intestine, 1 h): 0.77 ± 0.31 % ID/g | % ID/g (4 h) Intestine ([2]; Intestine, 4 h): 0.22 ± 0.06 % ID/g | % ID/g (1 h) Kidney ([2]; Kidney, 1 h): 3.71 ± 0.24 % ID/g | % ID/g (4 h) Kidney ([2]; Kidney, 4 h): 2.39 ± 0.37 % ID/g | % ID/g (1 h) Liver ([2]; Liver, 1 h): 0.51 ± 0.22 % ID/g | % ID/g (4 h) Liver ([2]; Liver, 4 h): 0.53 ± 0.16 % ID/g | % ID/g (1 h) Lung ([2]; Lung, 1 h): 0.54 ± 0.04 % ID/g | % ID/g (4 h) Lung ([2]; Lung, 4 h): 0.17 ± 0.08 % ID/g | % ID/g (1 h) Muscle ([2]; Muscle, 1 h): 0.06 ± 0 % ID/g | % ID/g (4 h) Muscle ([2]; Muscle, 4 h): 0.08 ± 0.02 % ID/g | % ID/g (1 h) Pancreas ([2]; Pancreas, 1 h): 0.11 ± 0.03 % ID/g | % ID/g (4 h) Pancreas ([2]; Pancreas, 4 h): 0.06 ± 0.02 % ID/g | % ID/g (1 h) Spleen ([2]; Spleen, 1 h): 0.09 ± 0.01 % ID/g | % ID/g (4 h) Spleen ([2]; Spleen, 4 h): 0.13 ± 0.03 % ID/g | % ID/g (1 h) Stomach ([2]; Stomach, 1 h): 0.27 ± 0.19 % ID/g | % ID/g (4 h) Stomach ([2]; Stomach, 4 h): 0.21 ± 0.05 % ID/g | % ID/g (1 h) Tumor ([2]; Tumor, 1 h): 12.71 ± 4.57 % ID/g | % ID/g (4 h) Tumor ([2]; Tumor, 4 h): 13.64 ± 2.5 % ID/g
